Test results published in patent publication US20100173943A1, “INSECTICIDAL COMPOSITIONS WITH IMPROVED ACTION” (BAYER CROPSCIENCE AG, priority 2007, published 2010).

How the values were obtained:
[1] = tested on: cotton aphid (Aphis gossypii); experiment: Aphis gossypii test (APHIGO spray treatment); format: in vivo; details: cotton leaves sprayed, 6 days
How it was run: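 Cotton leaves heavily infested with aphids sprayed with active ingredient formulated in DMF/alkylaryl polyglycol ether emulsifier and diluted in water to the test concentration, with ammonium salts and/or penetrants at 1000 ppm each where required. Kill rate (%) scored after the chosen period.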

[2] = tested on: green peach aphid (Myzus persicae); experiment: Myzus persicae test (MYZUPE); format: in vivo; details: pepper plants sprayed, 6 days; for pest or weed control at 20 ppm: 20 ppm a.i. alone
How it was run: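 Compound formulated in DMF with alkylaryl polyglycol ether emulsifier, diluted in emulsifier-containing water; ammonium salts and/or penetrants added at 1000 ppm each where required. Heavily infested pepper plants (Capsicum annuum) sprayed at desired concentration. Kill rate (%) scored after desired time; 100% = all aphids dead.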

[3] = 100 ppm a.i. + AMS and RME 1000 ppm each
[4] = 100 ppm a.i. + ammonium sulphate 1000 ppm
[5] = 100 ppm a.i. + rapeseed oil methyl ester 1000 ppm
[6] = 20 ppm a.i. + AMS and RME 1000 ppm each
[7] = 20 ppm a.i. + ammonium sulphate 1000 ppm
[8] = 20 ppm a.i. + rapeseed oil methyl ester 1000 ppm
[9] = Myzus persicae, 144 h, read-out: Kill in % after 6 days a.i.
[10] = 0.8 ppm a.i. + AMS and RME 1000 ppm each
[11] = 0.8 ppm a.i. + ammonium sulphate 1000 ppm
[12] = 0.8 ppm a.i. + rapeseed oil methyl ester 1000 ppm
[13] = 4 ppm a.i. + AMS and RME 1000 ppm each
[14] = 4 ppm a.i. + ammonium sulphate 1000 ppm
[15] = 4 ppm a.i. + rapeseed oil methyl ester 1000 ppm

CCN(Cc1ccc(Cl)nc1)C1=CC(=O)CCC1 [Compound I-39, 3-{[(6-chloropyrid-3-yl)methyl](ethyl)amino}cyclohex-2-en-1-one]
Kill in % after 6 days +AMS + RME [1, 3]: 60%
Kill in % after 6 days +AMS [1, 4]: 45%
Kill in % after 6 days +RME [1, 5]: 60%
pest or weed control at 100 ppm ([1]; Aphis gossypii, 144 h, 100 ppm a.i. alone, read-out: Kill in % after 6 days a.i.): 45%
Kill in % after 6 days +AMS + RME [2, 6]: 30%
Kill in % after 6 days +AMS [2, 7]: 25%
Kill in % after 6 days +RME [2, 8]: 80%
Kill in % after 6 days +AMS + RME [2, 3]: 95%
Kill in % after 6 days +AMS [2, 4]: 90%
Kill in % after 6 days +RME [2, 5]: 95%
pest or weed control at 20 ppm [2, 9]: 20%
pest or weed control at 100 ppm ([2]; Myzus persicae, 144 h, 100 ppm a.i. alone, read-out: Kill in % after 6 days a.i.): 85%

O=C1C=C(NCc2ccc(Cl)nc2)CCC1 [Compound I-37, 3-{[(6-chloropyrid-3-yl)methyl]amino}cyclohex-2-en-1-one]
Kill in % after 6 days +AMS + RME [1, 6]: 65%
Kill in % after 6 days +AMS [1, 7]: 45%
Kill in % after 6 days +RME [1, 8]: 40%
pest or weed control at 20 ppm ([1]; Aphis gossypii, 144 h, 20 ppm a.i. alone, read-out: Kill in % after 6 days a.i.): 55%
Kill in % after 6 days +AMS + RME [2, 6]: 95%
Kill in % after 6 days +AMS [2, 7]: 35%
Kill in % after 6 days +RME [2, 8]: 90%
pest or weed control at 20 ppm [2, 9]: 20%

O=C1C=C(N(Cc2cnc(Br)c(F)c2)CC(F)F)CO1 [Compound I-16, 4-{[(6-bromo-5-fluoropyrid-3-yl)methyl](2,2-difluoroethyl)amino}-furan-2(5H)-one]
Kill in % after 6 days +AMS + RME [1, 10]: 5%
Kill in % after 6 days +AMS [1, 11]: 10%
Kill in % after 6 days +RME [1, 12]: 10%
Kill in % after 6 days +AMS + RME [1, 13]: 90%
Kill in % after 6 days +AMS [1, 14]: 95%
Kill in % after 6 days +RME [1, 15]: 98%
pest or weed control at 0.8 ppm ([1]; Aphis gossypii, 144 h, 0.8 ppm a.i. alone, read-out: Kill in % after 6 days a.i.): 0%
pest or weed control at 4 ppm ([1]; Aphis gossypii, 144 h, 4 ppm a.i. alone, read-out: Kill in % after 6 days a.i.): 80%
Kill in % after 6 days +AMS + RME [2, 10]: 10%
Kill in % after 6 days +AMS [2, 11]: 0%
Kill in % after 6 days +RME [2, 12]: 10%
Kill in % after 6 days +AMS + RME [2, 13]: 100%
Kill in % after 6 days +AMS [2, 14]: 99%
Kill in % after 6 days +RME [2, 15]: 98%
pest or weed control at 0.8 ppm ([2]; Myzus persicae, 144 h, 0.8 ppm a.i. alone, read-out: Kill in % after 6 days a.i.): 5%
pest or weed control at 4 ppm ([2]; Myzus persicae, 144 h, 4 ppm a.i. alone, read-out: Kill in % after 6 days a.i.): 95%
